Our source for the mortality values is patent publication US12514251B2, “Fused heterocyclic compounds and their use as pest control agents” (priority 2020, dated 2026).

Each structure is given as a SMILES string.

For orientation: mortality means the share of the test organisms that died.

The assay deals with Plutella xylostella. Nature of the assay: Plutella xylostella, leaf dip method. The class given is in vivo. Conditions: foliar, cabbage leaf dip, second instar larvae, 72 h after release, dead + moribund vs untreated control, read-out: percent mortality. As for the experimental part:
The leaf dip method was used for testing, wherein the required quantity of the compound was weighed and dissolved in a tube containing solvent solution. The tube was put on a vortex at 2000 rpm for 90 min for proper mixing, then diluted with 0.01% Triton-X solution to get the desired test concentration. Cabbage leaves were dipped in the compound solution for 10 seconds, shade dried for 20 min and then transferred into the cells of bioassay trays. A single second instar larva was released into each cell and the tray was covered with a lid. The bio-assay trays were then kept under laboratory conditions at a temperature of 25° C. and a relative humidity of 70%. Observations on dead, moribund and alive larvae were recorded 72 h after the release. Percent mortality was calculated by combining dead and moribund larvae and comparing the result to the one of the untreated control.
In the case of `CCS(=O)(=O)c1cc(-c2ccc(OC(F)(F)C(F)F)cc2)cnc1-c1ccn2nc(C(F)(F)F)nc2n1` [Compound 104, 5-(3-(ethylsulfonyl)-5-(4-(1,1,2,2-tetrafluoroethoxy)phenyl)pyridin-2-yl)-2-(trifluoromethyl)-[1,2,4]triazolo[1,5-a]pyrimidine], the mortality at 300 ppm was at least 70%.

For the compound `CCSc1ccc(C)nc1-c1ccn2nc(C(F)(F)F)nc2n1` [Compound 187, 5-(3-(ethylthio)-6-methylpyridin-2-yl)-2-(trifluoromethyl)-[1,2,4]triazolo[1,5-a]pyrimidine], the mortality at 300 ppm was at least 70%.

`CCS(=O)(=O)c1cc(-c2cc(Cl)cc(Cl)c2)cnc1-c1ccn2nc(C(F)(F)F)nc2n1` [Compound 102, 5-(5-(3,5-dichlorophenyl)-3-(ethylsulfonyl)pyridin-2-yl)-2-(trifluoromethyl)-[1,2,4]triazolo[1,5-a]pyrimidine]: the mortality at 300 ppm is at least 70%.

For the compound `CCSc1cc(C2CC2)cnc1-c1ccn2nc(C(F)(F)F)cc2n1` [Compound 189, 5-(5-cyclopropyl-3-(ethylthio)pyridin-2-yl)-2-(trifluoromethyl)pyrazolo[1,5-a]pyrimidine], the mortality at 300 ppm was at least 70%.

Regarding `CCS(=O)(=O)c1ccc(OCC(F)(F)F)nc1-c1ccn2nc(C(F)(F)F)cc2n1` [Compound 239, 5-(3-(ethylsulfonyl)-6-(2,2,2-trifluoroethoxy)pyridin-2-yl)-2-(trifluoromethyl)pyrazolo[1,5-a]pyrimidine], the mortality at 300 ppm was at least 70%.

With `CCS(=O)(=O)c1ccc(-c2ccc(C#N)cc2)nc1-c1ccn2nc(C(F)(F)F)cc2n1` [Compound 18, 4-(5-(ethylsulfonyl)-6-(2-(trifluoromethyl)pyrazolo[1,5-a]pyrimidin-5-yl)pyridin-2-yl)benzonitrile], the mortality at 300 ppm was at least 70%.

Take `CCS(=O)(=O)c1ccc(C2CC2)nc1-c1ccn2nc(C(F)(F)F)nc2n1` [Compound 180, 5-(6-cyclopropyl-3-(ethylsulfonyl)pyridin-2-yl)-2-(trifluoromethyl)-[1,2,4]triazolo[1,5-a]pyrimidine]: the mortality at 300 ppm is at least 70%.

On to `CCS(=O)(=O)c1ccc(OC(C)C)nc1-c1ccn2nc(C(F)(F)F)cc2n1` [Compound 240, 5-(3-(ethylsulfonyl)-6-isopropoxypyridin-2-yl)-2-(trifluoromethyl)pyrazolo[1,5-a]pyrimidine], for which the mortality at 300 ppm was at least 70%.

Turning to `CCS(=O)(=O)c1ccc(OC2CSC2)nc1-c1ccn2nc(C(F)(F)F)cc2n1` [Compound 243, 5-(3-(ethylsulfonyl)-6-(thietan-3-yloxy)pyridin-2-yl)-2-(trifluoromethyl)pyrazolo[1,5-a]pyrimidine], the mortality at 300 ppm was at least 70%.

As for `CCS(=O)(=O)c1cc(-c2ccnn2C)cnc1-c1ccn2nc(C(F)(F)F)cc2n1` [Compound 71, 5-(3-(ethylsulfonyl)-5-(1-methyl-1H-pyrazol-5-yl)pyridin-2-yl)-2-(trifluoromethyl)pyrazolo[1,5-a]pyrimidine], the mortality at 300 ppm was at least 70%.

As to `CCS(=O)(=O)c1cc(-c2ccc(OC(F)(F)F)cc2)cnc1-c1ncc2nc(C(F)(F)F)n(C)c2n1` [Compound 119, 2-(3-(ethylsulfonyl)-5-(4-(trifluoromethoxy)phenyl)pyridin-2-yl)-9-methyl-8-(trifluoromethyl)-9H-purine], the mortality at 300 ppm was at least 70%.

For `CCS(=O)(=O)c1cc(-n2cncn2)cnc1-c1ccn2nc(C(F)(F)F)nc2n1` [Compound 146, 5-(3-(ethylsulfonyl)-5-(1H-1,2,4-triazol-1-yl)pyridin-2-yl)-2-(trifluoromethyl)-[1,2,4]triazolo[1,5-a]pyrimidine], the mortality at 300 ppm is at least 70%.

Regarding `CCS(=O)(=O)c1cc(-n2cc(Cl)cn2)cnc1-c1ccn2nc(C(F)(F)F)cc2n1` [Compound 89], the mortality at 300 ppm is at least 70%.

Consider `CCS(=O)(=O)c1cc(-c2cc(F)cc(Cl)c2)cnc1-c1ncc2nc(C(F)(F)F)n(C)c2n1` [Compound 131, 2-(5-(3-chloro-5-fluorophenyl)-3-(ethylsulfonyl)pyridin-2-yl)-9-methyl-8-(trifluoromethyl)-9H-purine], for which the mortality at 300 ppm is at least 70%.

As for `CCS(=O)(=O)c1cc(-c2cc(C(F)(F)F)nn2C)cnc1-c1ncc2nc(C(F)(F)F)n(C)c2n1` [Compound 121, 2-(3-(ethylsulfonyl)-5-(1-methyl-3-(trifluoromethyl)-1H-pyrazol-5-yl)pyridin-2-yl)-9-methyl-8-(trifluoromethyl)-9H-purine], the mortality at 300 ppm is at least 70%.

Consider `CCSc1ccc(C)nc1-c1ccn2nc(C(F)(F)F)cc2n1` [Compound 181, 5-(3-(ethylthio)-6-methylpyridin-2-yl)-2-(trifluoromethyl)pyrazolo[1,5-a]pyrimidine], for which the mortality at 300 ppm was at least 70%.

In the case of `CCS(=O)(=O)c1ccc(-n2cncn2)nc1-c1ccn2nc(C(F)(F)F)cc2n1` [Compound 3, 5-(3-(ethylsulfonyl)-6-(1H-1,2,4-triazol-1-yl)pyridin-2-yl)-2-(trifluoromethyl)pyrazolo[1,5-a]pyrimidine], the mortality at 300 ppm is at least 70%.

`CCS(=O)(=O)c1ccc(C(C)C)nc1-c1ccn2nc(C(F)(F)F)cc2n1` [Compound 238, 5-(3-(ethylsulfonyl)-6-isopropylpyridin-2-yl)-2-(trifluoromethyl)pyrazolo[1,5-a]pyrimidine]: the mortality at 300 ppm was at least 70%.

Consider `CCS(=O)(=O)c1cc(-c2cncnc2)cnc1-c1ccn2nc(C(F)(F)F)nc2n1` [Compound 135, 5-(3-(ethylsulfonyl)-5-(pyrimidin-5-yl)pyridin-2-yl)-2-(trifluoromethyl)-[1,2,4]triazolo[1,5-a]pyrimidine], for which the mortality at 300 ppm was at least 70%.

Consider `CCc1cnc(-c2ccn3nc(C(F)(F)F)cc3n2)c(S(=O)(=O)CC)c1` [Compound 211, 5-(5-ethyl-3-(ethylsulfonyl)pyridin-2-yl)-2-(trifluoromethyl)pyrazolo[1,5-a]pyrimidine], for which the mortality at 300 ppm is at least 70%.

Take `CCS(=O)(=O)c1ccc(-n2cncn2)nc1-c1cnc2cc(C(F)(F)F)nn2c1` [Compound 54, 6-(3-(ethylsulfonyl)-6-(1H-1,2,4-triazol-1-yl)pyridin-2-yl)-2-(trifluoromethyl)pyrazolo[1,5-a]pyrimidine]: the mortality at 300 ppm is at least 70%.

For the compound `CCS(=O)(=O)c1cc(-c2nccs2)cnc1-c1ccn2nc(C(F)(F)F)nc2n1` [Compound 132, 2-(5-(ethylsulfonyl)-6-(2-(trifluoromethyl)-[1,2,4]triazolo[1,5-a]pyrimidin-5-yl)pyridin-3-yl)thiazole], the mortality at 300 ppm is at least 70%.

Regarding `CCSc1cc(-n2cncn2)cnc1-c1ccn2nc(C(F)(F)F)cc2n1` [Compound 32, 5-(3-(ethylthio)-5-(1H-1,2,4-triazol-1-yl)pyridin-2-yl)-2-(trifluoromethyl)pyrazolo[1,5-a]pyrimidine], the mortality at 300 ppm is at least 70%.

Turning to `CCS(=O)(=O)c1cc(-c2cccc(C(F)(F)F)c2)cnc1-c1ncc2nc(C(F)(F)F)n(C)c2n1` [Compound 117, 2-(3-(ethylsulfonyl)-5-(3-(trifluoromethyl)phenyl)pyridin-2-yl)-9-methyl-8-(trifluoromethyl)-9H-purine], the mortality at 300 ppm is at least 70%.

As to `CCSc1ccc(-n2cncn2)nc1-c1cnc2cc(C(F)(F)F)nn2c1` [Compound 40, 6-(3-(ethylthio)-6-(1H-1,2,4-triazol-1-yl)pyridin-2-yl)-2-(trifluoromethyl)pyrazolo[1,5-a]pyrimidine], the mortality at 300 ppm is at least 70%.

Regarding `CCS(=O)(=O)c1cc(NC(=O)OC(C)(C)C)cnc1-c1ccn2nc(C(F)(F)F)cc2n1` [Compound 222, tert-butyl (5-(ethylsulfonyl)-6-(2-(trifluoromethyl)pyrazolo[1,5-a]pyrimidin-5-yl)pyridin-3-yl)carbamate], the mortality at 300 ppm is at least 70%.

With `CCc1ccc(S(=O)(=O)CC)c(-c2ccn3nc(C(F)(F)F)cc3n2)n1` [Compound 209, 5-(6-ethyl-3-(ethylsulfonyl)pyridin-2-yl)-2-(trifluoromethyl)pyrazolo[1,5-a]pyrimidine], the mortality at 300 ppm was at least 70%.

Regarding `CCS(=O)(=O)c1ccc(CC#N)nc1-c1ccn2nc(C(F)(F)F)cc2n1` [Compound 217, 2-(5-(ethylsulfonyl)-6-(2-(trifluoromethyl)pyrazolo[1,5-a]pyrimidin-5-yl)pyridin-2-yl)acetonitrile], the mortality at 300 ppm was at least 70%.

In the case of `CCS(=O)(=O)c1cc(CC#N)cnc1-c1ccn2nc(C(F)(F)F)cc2n1` [Compound 232, 2-(5-(ethylsulfonyl)-6-(2-(trifluoromethyl)pyrazolo[1,5-a]pyrimidin-5-yl)pyridin-3-yl)acetonitrile], the mortality at 300 ppm is at least 70%.

`CCS(=O)(=O)c1cc(OCC2CC2)cnc1-c1ccn2nc(C(F)(F)F)nc2n1` [Compound 161, 5-(5-(cyclopropylmethoxy)-3-(ethylsulfonyl)pyridin-2-yl)-2-(trifluoromethyl)-[1,2,4]triazolo[1,5-a]pyrimidine]: the mortality at 300 ppm was at least 70%.
